Assay results: patent US20260325465A1, “SHP-1 INHIBITORS FOR TREATING CANCER” (MDX MANAGEMENT LLC, priority 2022, published 2026)
Entries after “also recorded” stand apart in the source; their conditions may differ.

Assays:
[1] = test system: PTP/SHP-1 activity in KPC tumor; test: PTP/SHP-1 activity in KPC tumor in vivo; set-up: species or system murine; conditions: therapeutic treatment of KPC tumor
[2] = test system: Human monocyte-derived macrophages; test: Human monocyte-derived macrophage response in tumor milieu configurations; type: cell-based; conditions: co-cultured with cancer cells (configuration 3)
Protocol: Mechanism by which tumor cells inhibit macrophage proinflammatory response in TME was studied. As shown in panel A of FIG. 19, macrophage responses were assayed in a tumor milieu: Human monocyte-derived macrophages (MØ) were cultured alone (configuration 1), cultured in the presence of cancer cells-conditioned medium (50%) that contained cancer cell secreted factors (secretome; configuration 2), or co-cultured with cancer cells (cell “touch” model; configuration 3), or co-cultured with cancer cells that were placed in a transwell (0.4 μm) without “touching” MØ(configuration 4). Macrophages in these settings were treated with proinflammatory stimuli TLR agonist R848 (l g/ml), R848 plus IFNγ (40 ng/ml), or the sting activator MSA-2 (10 μg/ml).

[3] = test system: PTP activity in macrophages; test: PTP activity in macrophages co-cultured with cancer cells and stimulated with IFNγ/LPS or TLR agonists; type: cell-based; set-up: concentration or dose not given beside the values; conditions: induced by IFNγ/LPS or TLR agonists, with cancer cell ligation, 30 min, 37 °C
Protocol: (§1) FIGS. 3A-3E depict modulation of SHP-1 activity in proinflammatory macrophages in cancer. Macrophages co-cultured with cancer cells were stimulated with IFNγ/LPS or TLR agonists (αTLR) comprising CpG, polycytidylic acid (i.e., PolyI:C) and R848 (each 0.4 μg/ml) for 30 min (37 °C) in the presence or the absence of different SHP-1 or SHP-2 inhibitor or activator, followed by cell lysis and assays of PTP activity. FIG. 3A depicts SHP-1 activity regulation mechanisms. […] FIG. 3E depicts that PKCθ negatively regulates SHP-1 activity at a moderate level.

SHP-1 [4] = test: SHP-1 activity in macrophages under proinflammatory stimulation and cancer cell ligation; type: cell-based; conditions: IFNγ/LPS stimulation, cancer cell ligation
Protocol: FIGS. 2A-2G depict that the inhibition of SHP-1 enhances macrophage proinflammatory response, antigen presentation and phagocytosis in a tumor milieu. FIG. 2A and FIG. 2B depict that SHP-1 activity in macrophages is triggered by proinflammatory stimulation and the extracellular cancer cell ligation (“touching”) of macrophages (green bar in FIG. 2A). […] The SHP-2 inhibitor SHP099 (1 μg/ml) was used in assays. FIG. 2C depicts the inhibition of SHP-1 by TPI-1 dose-dependently recovers IFNγ/LPS-induced activation of STAT1 (p-STAT1) and Erk1/2 (p-Erk1/2) de-activated by SHP-1 (red line). FIG. 2D and FIG. 2E depict that the inhibition of SHP-1 in macrophages by TPI-1 enhances production of proinflammatory cytokines (FIG. 2D) and expression of immunogenic antigen presentation machinery (FIG. 2E) by IFNγ/LPS in a tumor milieu. […] The SHP-1 and SHP-2 inhibitors TPI-1 and SHP099, respectively, was used at 1 μg/ml in assays.
as §1
In addition to TPI-1, several other SHP-1 inhibitors such as PTP inhibitor-I, PTP inhibitor-III, and recently reported vitamin E (9, 10) and phomoxanthone A and B (P×A and P×B) (11) were tested. Given that PKCθ modulates SHP-1 activity through phosphorylating Ser591 (12, 13), PKCθ inhibitor and activator were also tested in various assays.

macrophages [5] = test: Macrophage cytokine production under immunosuppressive or proinflammatory stimulation with cancer cell ligation; type: cell-based
Description: FIGS. 6A-6D depict that the inhibition of SHP-1 promotes anti-tumor effects or pro-tumor effects under different circumstances. FIG. 6A depicts that intratumoral macrophages upregulate expression of iRs (Pir-B, Siglec E, F and G, and SIRPα) along with tumor progression to late-stage large sizes. KPC pancreatic tumors of small sizes (<150 mm^3) and those grown to larger sizes (>800 mm^3) were dissociated to single cells, followed by flow cytometry analyses for cell surface protein expression on macrophages (gated F4/80+). FIG. 6B depicts that the inhibition of SHP-1 alone promotes TME immunosuppression. Excised MC38 solid tumor cubes were treated with SHP-1 inhibitor TPI-1 (100 nM) or vehicle (DMSO) in a cell culture setting. After 24 h, tumor secreting cytokines into the culture medium were assayed by ELISA.
The SHP-1 activity in non-therapeutic solid tumors is low (see FIGS. 7A-7D), and this low activity inhibits immunosuppressive receptor signaling. […] In parallel experiments, the same SHP-1 inhibitors augmented macrophage responses to the M1 stimuli IFNγ and LPS and enhanced proinflammatory cytokine production.

[6] = test system: TLR7/8 overexpressing pancreatic cancer cell line; conditions: stimulation of TLR7/8; cited from earlier work
[7] = test system: malignant melanoma and advanced malignancies; conditions: cited from earlier work
macrophages [8] = test: Macrophage antigen presentation and proinflammatory response in presence of tumor cells with or without iShp1; type: cell-based; conditions: for pro-inflammatory activation of macrophages: combined with iShp1 (TPI-1), tumor milieu
Protocol: FIGS. 16A-16D depicts activation of macrophage proinflammatory response and antigen presentation in a tumor milieu by SHP-1 inhibition (iShp1) combination regimens. FIG. 16A depicts the testing system. FIG. 16B and FIG. 16C depict effects of interferons with or without TPI-1. FIG. 16D depicts effects of various agents including IL-1 family cytokines (IL-1, IL-18), TNFα and TLR ligands combined with TPI-1.
In vitro macrophages were assayed in the presence of tumor cells that ligate macrophage iRs with or without inhibition of SHP-1 (iShp1) by TPI-1. See the testing system in FIG. 16A.

SHP-2 = SHP-2 binding to macrophage iRs with phosphorylated ITIMs; type: cell-based; conditions: macrophages stimulated
SHP-1 [9] = test: SHP-1 binding to macrophage iRs with phosphorylated ITIMs; type: cell-based; conditions: macrophages stimulated
Description: Proinflammatory signal-induced Src family TK(s) mediate phosphorylation in the cytoplastic domain ITIMs that dock SHP-1 leading to SHP-1 activation.

Molecule: Nc1nc2c(ncn2[C@@H]2O[C@@H]3COP(=O)(O)O[C@H]4[C@@H](O)[C@H](n5cnc6c(N)ncnc65)O[C@@H]4COP(=O)(O)O[C@@H]2[C@@H]3O)c(=O)[nH]1 [2′3′-cGAMP]
- PTP/SHP-1 activity induced in tumor [1]: induced spikes of PTP activities

Molecule: Nc1ncn([C@@H]2O[C@H](CO)[C@@H](O)[C@H]2O)c(=O)n1 [Azacitidine (AZA), Azacitidine]
- PTP/SHP-1 activity induced in tumor [1]: spikes of SHP-1 activity are induced

Molecule: COc1cc2cc(C(=O)CCC(=O)O)sc2cc1OC [MSA-2]
- macrophage proinflammatory response in co-culture with cancer cells [2]: abolishment of proinflammatory response and enhanced immunosuppression with high IL-10 and TGFβ production

Molecule: O=C1C(=NNc2ccc(S(=O)(=O)O)cc2)C(c2ccc([N+](=O)[O-])cc2)=NN1c1ccccc1 [PHPS1]
- PTP activity diminished in macrophages [3]: < 10%

Molecule: CCCCCCCCCCCCCC(=O)O[C@@H]1[C@@H](C)[C@@]2(O)[C@@H](C=C(CO)C[C@]3(O)C(=O)C(C)=C[C@@H]23)[C@@H]2C(C)(C)[C@]12OC(C)=O [PMA]
- SHP-1 activity in macrophages (effect in words) (SHP-1 [4]): moderately inhibited SHP-1; also recorded: reduced SHP-1 activity

Molecule: O=C(CBr)c1ccc(O)cc1 [PTP-I]
- PTP activity diminished in macrophages [3]: > 70%
- macrophage production of IL-12 and TNFα (macrophages [5]; IFNγ and LPS): dose-dependently augmented macrophage proinflammatory response with increased IL-12 and TNFα
- macrophage production of IL-10 and TGFβ (macrophages [5]; IL-4/13 or IL-10 stimulation): dose-dependently augmented

Molecule: CCOCc1nc2c(N)nc3ccccc3c2n1CC(C)(C)O [R848]
- macrophage proinflammatory response in co-culture with cancer cells [2]: abolishment of proinflammatory response and enhanced immunosuppression with high IL-10 and TGFβ production
- cell proliferation and chemosensitivity [6]: increased cell proliferation and reduced chemosensitivity

Molecule: CC1(N)CCN(c2cnc(-c3cccc(Cl)c3Cl)c(N)n2)CC1 [SHP099]
- PTP activity diminished in macrophages [3]: < 10%

Molecule: O.O.O.O.O.O.O.O.O.O=C([O-])[C@@H]1[O][Sb]2([O-])([O][Sb]34([OH])[O][C@H]([C@H](O)CO)[C@H]([O]3)[C@H](C(=O)[O-])[O]4)[O][C@H]([C@H](O)CO)[C@@H]1[O]2.[Na+].[Na+].[Na+] [SSG, sodium stibogluconate]
- effect against tumor development ([7]; combination with interferons, with or without chemotherapy): no effect was seen against tumor development
- most common toxic side-effects, share of patients ([7]; thrombocytopenia, elevated serum lipase, fatigue, fever, chills, anemia, hypokalemia, pancreatitis, skin rash): up to 68 % of patients

Molecule: CC(C)[C@@](C)(O)[C@@H]1CN(c2nc(-c3[nH]nc4ncccc34)c(F)cc2Cl)CCN1 [VTX27]
- SHP-1 activity in macrophages (effect in words) (SHP-1 [4]): increased SHP-1 activity

Molecule: IFNα
- antigen presentation and proinflammatory response (macrophages [8]; alone, without and with iShp1 (TPI-1)): did not induce antigen presentation or proinflammatory response

Molecule: IL-1β: IL-1 family cytokine
- pro-inflammatory activation of macrophages (macrophages [8]): exhibited capacities of pro-inflammatory activation of macrophages

Molecule: IL-4: immunosuppressive cytokine
- binding of SHP-2 to iR ITIMs (SHP-2): SHP-2 binding is dominated
- binding of SHP-1 to iR ITIMs (SHP-1 [9]): leads to binding of SHP-1

Molecule: IL-6: activating cytokine
- binding of SHP-1 to iR ITIMs (SHP-1 [9]): SHP-1 binding occurs exclusively under proinflammatory conditions

Molecule: IL-10: immunosuppressive cytokine
- binding of SHP-2 to iR ITIMs (SHP-2): SHP-2 binding is dominated
- binding of SHP-1 to iR ITIMs (SHP-1 [9]): leads to binding of SHP-1

Molecule: IL-18: IL-1 family cytokine
- pro-inflammatory activation of macrophages (macrophages [8]): exhibited capacities of pro-inflammatory activation of macrophages

Molecule: Phomoxanthone A [Phomoxanthone A (PXA)]
- SHP-1 activity in macrophages (effect in words) (SHP-1 [4]): dose-dependently, moderately inhibited SHP-1 activity

Molecule: TGFβ: immunosuppressive cytokine
- binding of SHP-2 to iR ITIMs (SHP-2): SHP-2 binding is dominated
- binding of SHP-1 to iR ITIMs (SHP-1 [9]): leads to binding of SHP-1

Molecule: TNFα
- binding of SHP-1 to iR ITIMs (SHP-1 [9]): SHP-1 binding occurs exclusively under proinflammatory conditions
- pro-inflammatory activation of macrophages (macrophages [8]): exhibited capacities of pro-inflammatory activation of macrophages

Molecule: lipopolysaccharide [LPS]
- binding of SHP-1 to iR ITIMs (SHP-1 [9]): SHP-1 binding occurs exclusively under proinflammatory conditions

Molecule: pervanadate
- PTP activity diminished in macrophages [3]: > 70%

Molecule: polycytidylic acid [PolyIC]
- binding of SHP-1 to iR ITIMs (SHP-1 [9]): SHP-1 binding occurs exclusively under proinflammatory conditions

B1: IFNγ: type II interferon (protein, UniProt P01579 24-161, looked up)
Interferon gamma: QDPYVKEAENLKKYFNAGHSDVADNGTLFLGILKNWKEESDRKIMQSQIVSFYFKLFKNFKDDQSIQKSVETIKEDMNVKFFNSNKKKRDDFEKLTNYSVTDLNVQRKAIHELIQVMAELSPAAKTGKRKRSQMLFRG
- binding of SHP-1 to iR ITIMs (SHP-1 [9]): SHP-1 binding occurs exclusively under proinflammatory conditions
- antigen presentation (macrophages [8]; plus iShp1 (TPI-1)): significantly increased antigen presentation
- proinflammatory cytokine production (macrophages [8]; plus iShp1 (TPI-1)): did not elicit proinflammatory cytokine production
